This is an account of results in paper PMC9146695, “Globularia alypum L. and Related Species: LC-MS Profiles and Antidiabetic, Antioxidant, Anti-Inflammatory, Antibacterial and Anticancer Potential” (Pharmaceuticals, 2022).

In brackets after ≈: the same amount, converted by molar mass. Read-outs that look alike come from different tables or passages of the source. Some results are limits rather than exact numbers.

The target of one experiment is α-glucosidase. Conditions: cited from earlier work.
For experiment [1] the following is noted: cited from earlier work.
Experiment [2] is described as follows: DPPH radical scavenging activity assay. The following applies: methanolic aerial parts extracts (Soxhlet); 30 min. The method, then: Antiradical activity was assessed using the free radical 2,2-diphenyl-1-picrylhydrazyl (DPPH) according to the previously described procedure. Methanolic stock solution of DPPH (0.1 mM) was dissolved to obtain absorbance of 0.70 ± 0.02. In 2 mL of prepared solution, 10 µL sample was added. After 30 min incubation, absorbance was measured at 517 nm with methanol used as blank. Results are expressed as concentrations observed to reduce the DPPH radical absorbance by 50% (IC50).
A general note: The DPPH test is a chemical assay of radical scavenging.

A further experiment deals with E. faecalis. The following applies: cited from earlier work.
Another experiment concerns S. aureus. The following applies: cited from earlier work.
In a further experiment the test system is B. subtilis. More on the design: method as in PMID 31737673. The following applies: same ATCC strain as in the present study; cited from earlier work.
Experiment [3] deals with B. subtilis, B. cereus and S. aureus. More on the design: method as in earlier work. Conditions: cited from earlier work.
The subject of a further experiment is P. aeruginosa. Conditions: cited from earlier work.
A further experiment concerns HL60 cells. The following applies: cited from earlier work.
The next experiment relates to KB cells. The following applies: cited from earlier work.
The test system of experiment [4] is YMB-1 breast cancer cells. The following applies: cited from earlier work.
For experiment [5], the system named is HT-29 human colon adenocarcinoma cells. More on the design: method as in doi:10.1007/s00044-015-1500-z. Conditions: cited from earlier work.
For experiment [6], the system named is CAMA-1 breast cancer cells. More on the design: method as in doi:10.4314/tjpr.v17i9.4. The following applies: cited from earlier work.
In experiment [7] the test system is Bacillus subtilis ATCC 6633. Nature of the experiment: Well diffusion method. Type of experiment: cell-based. The following applies: aerial parts extracts c = 50 mg/mL; antibiotics c = 0.2 mg/mL; n.d. = growth inhibition not detected. As for the experimental part:
(§1) Antibacterial activity was evaluated using the following strains: Bacillus cereus American Type Culture Collection (ATCC, Manassas, VA, USA) 11778, B. subtilis ATCC 6633, Enterococcus faecalis ATCC 29212, Staphylococcus aureus ATCC 6538 and S. aureus ATCC 29213 among Gram-positive and Escherichia coli ATCC 10536, Klebsiella pneumoniae MFBF 10402 and Pseudomonas aeruginosa ATCC 27853 among Gram-negative bacterial species. Additionally, eight clinical isolates of S. aureus, including methicillin-resistant S. aureus (MRSA MFB F101, MRSA MFBF 124, MRSA MFBF 154, MRSA MFBF 164, and MRSA MFBF 177) and methicillin susceptible S. aureus (S. aureus MFBF 505, S. aureus MFBF 10661 and S. aureus MFBF 10666) were used. Bacterial strains were sourced from the Collection of Microorganisms, Department of Microbiology, Faculty of Pharmacy and Biochemistry, University of Zagreb. Inoculums were prepared from overnight cultures that were cultured on tryptic soy agar (TSA) at 37 °C, suspended in sterile physiological saline, with the optic density adjusted to 0.5 McFarland (1.5 × 10^8 colony-forming units (CFUs)/mL) using a densitometer (Densimat, BioMérieux, Marcy-l’Étoile, France). Right before cultivation in nutrient medium, 1 mL of each prepared suspension was dissolved with 9 mL physiological saline. Prior to cell treatment, sample stock solutions in distilled water (c = 50 mg/mL) were filtered through Chromafil cellulose acetate filters of pore size 0.22 μm (Macherey-Nagel, Düren, Germany).
(§2) Well diffusion method was carried out according to the European Pharmacopoeia. Inoculums (100 μL) were transferred to individual petri dishes with 4 mm thick Müller–Hinton agar and equally distributed across agar surface with a glass L-stick. Wells were prepared using sterile stainless-steel cylinders (d = 6 mm) and filled with 50 μL of methanolic aerial parts extract solution (c = 50 mg/mL) in distilled water. Plates were incubated at 37 °C for 18 h in the dark. Diameters of the zones of inhibition of bacterial growth (mm) were read from the diameters of transparent zones around the wells. Gentamicin and norfloxacin (c = 0.2 mg/mL) were used as positive controls.
(A growth-free zone around the sample is the usual read-out of agar diffusion tests.)

The subject of experiment [8] is Escherichia coli ATCC 10536. Nature of the experiment: Well diffusion method. Type of experiment: cell-based. The following applies: aerial parts extracts c = 50 mg/mL; antibiotics c = 0.2 mg/mL; n.d. = growth inhibition not detected. The method, then:
as §1, §2

In experiment [9] the test system is Pseudomonas aeruginosa ATCC 27853. Nature of the experiment: Well diffusion method. The following applies: aerial parts extracts c = 50 mg/mL; antibiotics c = 0.2 mg/mL; n.d. = growth inhibition not detected. Format: cell-based. The method, then:
as §1, §2

In experiment [10] the test system is Bacillus cereus ATCC 11778. Nature of the experiment: Well diffusion method. Conditions: aerial parts extracts c = 50 mg/mL; antibiotics c = 0.2 mg/mL; n.d. = growth inhibition not detected. Format: cell-based. As for the experimental part:
as §1, §2

Experiment [11] has as its system Staphylococcus aureus ATCC 6538. Nature of the experiment: Well diffusion method. The following applies: aerial parts extracts c = 50 mg/mL; antibiotics c = 0.2 mg/mL. Type of experiment: cell-based. The method, then:
as §1, §2

Experiment [12] relates to Enterococcus faecalis ATCC 29212. As to the kind of experiment: Well diffusion method. Type of experiment: cell-based. The following applies: aerial parts extracts c = 50 mg/mL; antibiotics c = 0.2 mg/mL; n.d. = growth inhibition not detected. The method, then:
as §1, §2

Experiment [13] deals with Klebsiella pneumoniae MFBF 10402. As to the kind of experiment: Well diffusion method. Format: cell-based. The following applies: aerial parts extracts c = 50 mg/mL; antibiotics c = 0.2 mg/mL; n.d. = growth inhibition not detected. The method, then: as §1, §2
The subject of the next experiment is E. coli. More on the design: method as in doi:10.1016/j.sajb.2010.04.010. Conditions: range given for both compounds; cited from earlier work.
Where [14] appears, read: compounds from Origanum majorana leaves.
[15] abbreviates: constituents of G. alypum and standards, read-out: DPPH radical scavenging IC50.
The mark [16] stands for this setting: same ATCC strain as in the present study.
The mark [17] stands for this setting: isolated compounds of Clerodendrum bungei.

For the compound `OCCc1ccc(O)c(O)c1` [hydroxytyrosyl moiety], the IC50 (usually the concentration that inhibits the measured activity by half) at α-glucosidase is 150 µM. Take `O=C(/C=C/c1ccc(O)c(O)c1)O[C@H]1[C@H](O)[C@@H](O)[C@H](OCCc2ccc(O)c(O)c2)O[C@@H]1CO` [calceolarioside A, Calceolarioside A (Desrhamnosyl verbascoside)]: the IC50 in [1] (read-out: DPPH IC50) was 22.9 µM. `O=c1cc(-c2ccc(O)c(O)c2)oc2cc(O)cc(O)c12` [luteolin]: on α-glucosidase (setting [14]), the 50% inhibitory concentration (IC50) was greater than 500 µM.

Turning to `O=C(/C=C/c1ccc(O)c(O)c1)OC[C@H]1O[C@@H](OCCc2ccc(O)c(O)c2)[C@H](O)[C@@H](O)[C@@H]1O` [calceolarioside B, Calceolarioside B (Desrhamnosyl isoverbascoside)], the 50% inhibitory concentration (IC50) in [1] (read-out: DPPH IC50) was 26.2 µM. For the compound `Cc1c(C)c2c(c(C)c1O)CCC(C)(C(=O)O)O2` (stereo not shown) [Trolox], the “DPPH radical scavenging activity IC50” value in experiment [2] is 2.71 µg/mL. Turning to `O=c1c(O)c(-c2ccc(O)c(O)c2)oc2cc(O)cc(O)c12` [quercetin], the IC50 in experiment [1] (setting [15]) is 7.8 µM. For `O=c1cc(-c2ccc(O)cc2)oc2cc(O)c(O)c(O)c12` [6-hydroxyapigenin, 6-hydroxyapigenin (scutellarein)], the concentration for half-maximal inhibition (IC50) at α-glucosidase (setting [14]) is 12 µM. Regarding `O=c1cc(-c2ccc(O)cc2)oc2cc(O)cc(O)c12` [apigenin, Apigenin], in the experiment with E. faecalis (setting [16]), the “MIC against E. faecalis” value is 8 µg/mL (≈ 29.6 µM). For the same compound, in the experiment on S. aureus, the “inhibitory activity against S. aureus” value was “no inhibitory activity was observed”. For the same compound, in the experiment with B. subtilis, the “MIC against B. subtilis” value is 8 µg/mL (≈ 29.6 µM). In addition, the “MIC against B. subtilis, B. cereus and S. aureus” value in [3] is 30 to 80 µg/mL. Moreover, the concentration for half-maximal inhibition (IC50) at α-glucosidase (setting [14]) was greater than 500 µM. Also, in the experiment on P. aeruginosa (setting [16]), the “MIC against P. aeruginosa” value is 64 to 400 µg/mL. With `O=c1cc(-c2ccc(O)c(O)c2)oc2cc(O[C@@H]3O[C@H](CO)[C@@H](O)[C@H](O)[C@H]3O)c(O)c(O)c12` [6-hydroxyluteolin 7-O-glucoside, 6-Hydroxyluteolin 7-O-glucoside], the IC50 at α-glucosidase (setting [14]) is 300 µM.

For the compound `O=c1cc(-c2ccc(O)c(O)c2)oc2cc(O[C@@H]3O[C@H](CO)[C@@H](O)[C@H](O)[C@H]3O)cc(O)c12` [luteolin 7-O-glucoside], in [3], the “MIC against B. subtilis, B. cereus and S. aureus” value is 50 to 90 µg/mL. In the case of `CC(=O)OCC1=C[C@@H]2OC(=O)C3=CO[C@@H](O[C@@H]4O[C@H](CO)[C@@H](O)[C@H](O)[C@H]4O)[C@H]1[C@@H]32` [asperuloside, Asperuloside], in the experiment with HL60 cells, the “IC50 HL60 cells” value is 11.0 µg/mL (≈ 26.5 µM). For the same compound, the “IC50 KB cells” value with KB cells is 104.2 µg/mL (≈ 251 µM). For the same compound, the “IC50 YMB-1 breast cancer cells” value in experiment [4] is 0.7 µg/mL (≈ 1.69 µM). For the compound `CC(=O)OCC1=C[C@H](O)[C@@H]2C(C(=O)O)=CO[C@@H](O[C@@H]3O[C@H](CO)[C@@H](O)[C@H](O)[C@H]3O)[C@H]12` [asperulosidic acid, Asperulosidic acid], the “IC50 HT-29 cell viability” value in experiment [5] was 6.1 µg/mL (≈ 14.1 µM). As for `O=C(OCC1=CC(O)C2(O)C=COC(O[C@@H]3O[C@H](CO)[C@@H](O)[C@H](O)[C@H]3O)C12)c1ccccc1` (stereo partly shown) [Globularifolin, Globularifolin (10-O-Benzoylmonomelittoside)], the IC50 in [6] is 10 µM. On to `Cc1cc(C(C)(C)C)c(O)c(C(C)(C)C)c1` [butylated hydroxytoluene], for which the 50% inhibitory concentration (IC50) in [1] (setting [15]) was 30 µM. As for `COc1cc(/C=C/C(=O)O[C@H]2[C@H](O[C@@H]3O[C@@H](C)[C@H](O)[C@@H](O)[C@H]3O)[C@@H](O)[C@H](OCCc3ccc(O)c(O)c3)O[C@@H]2CO)ccc1O` [leucosceptoside A, Leucosceptoside A], on α-glucosidase (setting [17]), the half-maximal inhibitory concentration (IC50) is 700 µM.

As to `O=C(O)c1cc(O)c(O)c(O)c1` [Gallic Acid, gallic acid], the “DPPH radical scavenging activity IC50” value in [2] came to 0.64 µg/mL. `CCn1cc(C(=O)O)c(=O)c2cc(F)c(N3CCNCC3)cc21` [Norfloxacin, norfloxacin]: the growth inhibition zone in [7] turned out to be 41.0 ± 0.0 mm; in experiment [8], 44.7 ± 1.0 mm; in experiment [9] it was 30.7 ± 2.8 mm; in experiment [10], 26.6 ± 0.9 mm; in [11], 33.8 ± 0.8 mm; in experiment [12] it was 23.8 ± 0.8 mm. Also, the growth inhibition zone in [13] is reported as 7.3 ± 0.5 mm. Consider `O=c1cc(-c2ccc(O)c(O)c2)oc2cc(O)c(O)c(O)c12` [6-hydroxyluteolin], for which the IC50 at α-glucosidase (setting [14]) is 10 µM. Consider `O=c1cc(-c2ccc(O)cc2)oc2c([C@@H]3O[C@H](CO)[C@@H](O)[C@H](O)[C@H]3O)c(O)c([C@@H]3O[C@H](CO)[C@@H](O)[C@H](O)[C@H]3O)c(O)c12` [vicenin-2, Vicenin-2 (Apigenin-6,8-di-C-glucoside)], for which, at α-glucosidase, the IC50 was 271 µM. As to `C[C@@H]1O[C@@H](O[C@@H]2[C@@H](O)[C@H](OCCc3ccc(O)c(O)c3)O[C@H](COC(=O)/C=C/c3ccc(O)c(O)c3)[C@H]2O)[C@H](O)[C@H](O)[C@H]1O` [isoverbascoside, Isoverbascoside (Isoacteoside)], the “MIC against E. coli” value in the experiment on E. coli is 100 to 250 µg/mL. For the same compound, the “MIC against E. faecalis” value in the experiment on E. faecalis (range given for both compounds) is 100 to 150 µg/mL. In addition, the “MIC, anti-staphylococcal activity” value in the experiment on S. aureus is 130 µg/mL (≈ 208 µM). Further, at α-glucosidase (setting [17]), the IC50 is 100 µM. Moreover, the “MIC against P. aeruginosa” value in the experiment with P. aeruginosa (given for both compounds) is 250 µg/mL (≈ 400 µM).
